Assay results reported in the OligoGym collection.
Bases are written 5' to 3'; sugars and linkages follow in the same order, as letters with counts (s phosphorothioate, o phosphodiester; PS: all linkages phosphorothioate). The collection does not say whether C is 5-methylated. l = locked nucleic acid (LNA); d = 2'-deoxy (DNA)

What follows are sequences tested against Tau (assay: rat primary cortical neurons, FLIPR, 25 uM ASO).
With “CGGTAGGAAAGACATTTCCC (sugars l3 d14 l3, PS)” the calcium oscillation score was 10.1 % of control. With CGTCAGCTAGCGTGGC (sugars l3 d10 l3, PS) the calcium oscillation score was 117 % of control. With “CGTCCCAGCGTGATCTTCCA (sugars l4 d11 l5, PS)” the calcium oscillation score was 42.6 % of control. “CGTCCCAGCGTGATCTTCCA (sugars l5 d11 l4, PS)” was tested, and the calcium oscillation score was 36.2 % of control. In the case of “CGTCCCAGCGTGATCTTCCA (sugars ldlllddddddddddlldll, PS)”, the calcium oscillation score is reported as 38.3 % of control. In the case of “CGTCCCAGCGTGATCTTCCA (sugars lldllddddddddddlldll, PS)”, the calcium oscillation score is reported as 59.6 % of control. In the case of “CGTCTTTGCTTTTACTGACC (sugars l3 d14 l3, PS)”, the calcium oscillation score is reported as 29.6 % of control. For CGTGATCTTCCATC (sugars l3 d8 l3, PS), the calcium oscillation score was 85.1 % of control. In the case of CGTGATCTTCCATCAC (sugars l3 d10 l3, PS), the calcium oscillation score is reported as 127 % of control. With CGTGGGTGATATTGTC (sugars l3 d10 l3, PS) the calcium oscillation score was 0 % of control. For “CGTGGGTGATATTGTCCAGG (sugars l3 d14 l3, PS)”, the calcium oscillation score was 0 % of control. With CGTGGTCTGTCTTG (sugars l3 d8 l3, PS) the calcium oscillation score was 0 % of control. With CGTGGTCTGTCTTGGC (sugars l3 d10 l3, PS) the calcium oscillation score was 19 % of control. CGTTCTCGCGGAAGGT (sugars l3 d10 l3, PS) was tested, and the calcium oscillation score was 13 % of control. For CGTTGCTAAGATCCAG (sugars l3 d10 l3, PS), the calcium oscillation score was 9.04 % of control. With CGTTTTCTTACCACCC (sugars l2 d12 l2, PS) the calcium oscillation score was 46.2 % of control. In the case of CTAAACCATGATCTTA (sugars l3 d10 l3, PS), the calcium oscillation score is reported as 21.1 % of control. With CTAAAGTCCCAGGTC (sugars l3 d9 l3, PS) the calcium oscillation score was 40.5 % of control. CTAAAGTCCCAGGTCT (sugars l3 d10 l3, PS) was tested, and the calcium oscillation score was 59.2 % of control. With “CTAAGCACTTTACCCATC (sugars l3 d13 l2, PS)” the calcium oscillation score was 97.6 % of control. For CTAAGGCAAGGCCTAT (sugars l3 d10 l3, PS), the calcium oscillation score was 83 % of control. In the case of “CTAATATCCTTGCTATC (sugars l3 d10 l4, PS)”, the calcium oscillation score is reported as 55.7 % of control. For CTAATCCTGTGCTT (sugars l3 d8 l3, PS), the calcium oscillation score was 26.1 % of control. For CTAATCCTGTGCTTC (sugars l3 d9 l3, PS), the calcium oscillation score was 73.1 % of control. With CTAATCCTGTGCTTCA (sugars l3 d10 l3, PS) the calcium oscillation score was 100 % of control. For “CTAATGAGCCACACTTGGAG (sugars l3 d14 l3, PS)”, the calcium oscillation score was 46.5 % of control. With “CTAATTACATTTTTTCTT (sugars l4 d10 l4, PS)” the calcium oscillation score was 63.9 % of control. For “CTAATTACATTTTTTCTTT (sugars l4 d11 l4, PS)”, the calcium oscillation score was 62.6 % of control. “CTAATTACATTTTTTCTTTT (sugars l4 d12 l4, PS)” was tested, and the calcium oscillation score was 60.1 % of control. With “CTAATTCCCAAATTCCTCA (sugars l2 d14 l3, PS)” the calcium oscillation score was 62.1 % of control. “CTAATTCCCAAATTCCTCAT (sugars l3 d14 l3, PS)” was tested, and the calcium oscillation score was 60.9 % of control. With “CTAATTTAGTCACCATC (sugars l3 d10 l4, PS)” the calcium oscillation score was 83.3 % of control. CTACAAACCAGTTACC (sugars l3 d9 l4, PS) was tested, and the calcium oscillation score was 107 % of control. “CTACAAACCAGTTACCA (sugars l3 d11 l3, PS)” was tested, and the calcium oscillation score was 69.9 % of control. In the case of “CTACACCACTGTTCCATA (sugars l1 d15 l2, PS)”, the calcium oscillation score is reported as 62 % of control. “CTACATTTTTGTCTCAT (sugars l4 d10 l3, PS)” was tested, and the calcium oscillation score was 65.4 % of control. For CTACCATGTCGATG (sugars l3 d8 l3, PS), the calcium oscillation score was 6.9 % of control. CTACCATGTCGATGCT (sugars l3 d10 l3, PS) was tested, and the calcium oscillation score was 99.7 % of control. With “CTACCCCATTTTTGACAT (sugars l3 d13 l2, PS)” the calcium oscillation score was 48.7 % of control. With CTACTATTTACTATGC (sugars l3 d9 l4, PS) the calcium oscillation score was 66.8 % of control. For “CTACTATTTACTATGCA (sugars l4 d10 l3, PS)”, the calcium oscillation score was 78.4 % of control. “CTACTTTATTCCCTTAAC (sugars l4 d11 l3, PS)” was tested, and the calcium oscillation score was 91.3 % of control. With “CTACTTTATTCCCTTAACAA (sugars l2 d15 l3, PS)” the calcium oscillation score was 86.8 % of control. For “CTAGCCCACCCATCAATTTG (sugars l3 d14 l3, PS)”, the calcium oscillation score was 0 % of control. For “CTAGTTATACAGTTGGCCCT (sugars l3 d14 l3, PS)”, the calcium oscillation score was 33.3 % of control. “CTATTCCTGAATTTTTC (sugars l4 d10 l3, PS)” was tested, and the calcium oscillation score was 69 % of control. In the case of “CTCAAAAATCAACGCCT (sugars l3 d10 l4, PS)”, the calcium oscillation score is reported as 57 % of control. “CTCAAAATCCTTAATTTAAC (sugars l4 d12 l4, PS)” was tested, and the calcium oscillation score was 64.4 % of control. In the case of “CTCAAACTTAAATTTATT (sugars l4 d10 l4, PS)”, the calcium oscillation score is reported as 82.4 % of control. For “CTCAAACTTAAATTTATTTT (sugars l4 d12 l4, PS)”, the calcium oscillation score was 90.7 % of control. For “CTCAAATCAAACTAATATT (sugars l4 d11 l4, PS)”, the calcium oscillation score was 98.6 % of control. For “CTCAAATCAATTCTCATTTC (sugars l4 d13 l3, PS)”, the calcium oscillation score was 62 % of control. For “CTCAACATTACCCTTAAATA (sugars l4 d14 l2, PS)”, the calcium oscillation score was 57.6 % of control. In the case of “CTCAAGAAATGGTTTGCTAC (sugars l3 d14 l3, PS)”, the calcium oscillation score is reported as 23.8 % of control. For CTCACCCCAAACAAGA (sugars l3 d10 l3, PS), the calcium oscillation score was 65.6 % of control. For “CTCACCCCAAACAAGAA (sugars l2 d11 l4, PS)”, the calcium oscillation score was 45.1 % of control. “CTCACTTTACACATTAAATT (sugars l4 d12 l4, PS)” was tested, and the calcium oscillation score was 59.8 % of control. “CTCAGATTTTACTTCCA (sugars l4 d11 l2, PS)” was tested, and the calcium oscillation score was 45.2 % of control. For “CTCAGATTTTACTTCCAC (sugars l4 d12 l2, PS)”, the calcium oscillation score was 43.1 % of control. In the case of “CTCAGCTAAGACCCTCAGGT (sugars l3 d14 l3, PS)”, the calcium oscillation score is reported as 31.2 % of control. For “CTCAGCTCTTCCATAAGCAG (sugars l3 d14 l3, PS)”, the calcium oscillation score was 40.3 % of control. In the case of CTCAGGTCAACTGGTT (sugars l3 d10 l3, PS), the calcium oscillation score is reported as 83.8 % of control. “CTCATCAACACCTTTTAATT (sugars l4 d14 l2, PS)” was tested, and the calcium oscillation score was 78.7 % of control. With CTCATTGCAACTTTAAC (sugars l4 d9 l4, PS) the calcium oscillation score was 84.9 % of control. In the case of “CTCATTTACCAATTATCTTT (sugars l4 d14 l2, PS)”, the calcium oscillation score is reported as 64 % of control. “CTCATTTTTCTCAAGCTC (sugars l3 d12 l3, PS)” was tested, and the calcium oscillation score was 44.8 % of control. With CTCCAATCTTACAGAT (sugars l4 d9 l3, PS) the calcium oscillation score was 102 % of control. In the case of CTCCAATTTTAAACTTA (sugars l4 d9 l4, PS), the calcium oscillation score is reported as 66.5 % of control. In the case of “CTCCAATTTTAAACTTAA (sugars l4 d10 l4, PS)”, the calcium oscillation score is reported as 69 % of control. With “CTCCAATTTTAAACTTAAA (sugars l4 d11 l4, PS)” the calcium oscillation score was 70.2 % of control. For “CTCCCATCACTAGCACT (sugars l1 d14 l2, PS)”, the calcium oscillation score was 38.3 % of control. In the case of “CTCCCTTTAATGCCAGGCCC (sugars l3 d14 l3, PS)”, the calcium oscillation score is reported as 20.1 % of control. In the case of CTCCTAATTTTGCACT (sugars l4 d10 l2, PS), the calcium oscillation score is reported as 44.2 % of control. For “CTCCTAATTTTGCACTC (sugars l3 d11 l3, PS)”, the calcium oscillation score was 46.7 % of control. With “CTCCTAATTTTGCACTCA (sugars l3 d13 l2, PS)” the calcium oscillation score was 50.5 % of control. “CTCCTAGAACACAACAC (sugars l3 d10 l4, PS)” was tested, and the calcium oscillation score was 50.9 % of control. CTCCTATATTCTCAGT (sugars l3 d9 l4, PS) was tested, and the calcium oscillation score was 73.7 % of control. With CTCCTGGTTTATGATG (sugars l3 d10 l3, PS) the calcium oscillation score was 31.3 % of control. For “CTCCTGGTTTATGATGGATG (sugars l3 d14 l3, PS)”, the calcium oscillation score was 35 % of control. For CTCGCGGAAGGTCAGC (sugars l3 d10 l3, PS), the calcium oscillation score was 0 % of control. For “CTCGCGGAAGGTCAGCTTGT (sugars l3 d14 l3, PS)”, the calcium oscillation score was 2.91 % of control. With CTCGTCAGCTAGCGTG (sugars l3 d10 l3, PS) the calcium oscillation score was 27.1 % of control. With “CTCTAAGTAGACCCTGGCCA (sugars l3 d14 l3, PS)” the calcium oscillation score was 19.1 % of control. In the case of CTCTCAAAAATCAACGC (sugars l4 d9 l4, PS), the calcium oscillation score is reported as 66.3 % of control. In the case of CTCTCTGCATATATAAT (sugars l4 d9 l4, PS), the calcium oscillation score is reported as 72.2 % of control. With CTCTGGTCAAGGCTTT (sugars l3 d10 l3, PS) the calcium oscillation score was 0 % of control. In the case of “CTCTGTCACTTACTACTC (sugars l3 d13 l2, PS)”, the calcium oscillation score is reported as 80.8 % of control. CTCTTAGCATCAGAGG (sugars l3 d10 l3, PS) was tested, and the calcium oscillation score was 70.4 % of control. “CTCTTAGCATCCACTTA (sugars l3 d12 l2, PS)” was tested, and the calcium oscillation score was 44.5 % of control. With “CTCTTATCTTTGTTTCTA (sugars l4 d12 l2, PS)” the calcium oscillation score was 51.1 % of control. CTCTTCAAATCATTCAA (sugars l4 d9 l4, PS) was tested, and the calcium oscillation score was 68.4 % of control. In the case of “CTCTTCAAATCATTCAAT (sugars l4 d10 l4, PS)”, the calcium oscillation score is reported as 69.7 % of control. In the case of CTCTTCCACTACAAGC (sugars l3 d11 l2, PS), the calcium oscillation score is reported as 46.2 % of control. With “CTCTTCCACTACAAGCTC (sugars l3 d13 l2, PS)” the calcium oscillation score was 28.9 % of control. With “CTCTTGACAGTCACTGCTGA (sugars l3 d14 l3, PS)” the calcium oscillation score was 29.4 % of control. “CTCTTTCTTAATTCAGA (sugars l4 d10 l3, PS)” was tested, and the calcium oscillation score was 60.1 % of control. In the case of “CTCTTTGAACACCCCATC (sugars l3 d13 l2, PS)”, the calcium oscillation score is reported as 41.9 % of control. For CTGAAAGAGGGCAGCA (sugars l3 d10 l3, PS), the calcium oscillation score was 36.8 % of control. With “CTGATCACAAACCCTGCTTG (sugars l3 d14 l3, PS)” the calcium oscillation score was 20.3 % of control. “CTGATCATAATCCTACC (sugars l3 d11 l3, PS)” was tested, and the calcium oscillation score was 54.9 % of control. For CTGCCGGTGGAGGAGA (sugars l3 d10 l3, PS), the calcium oscillation score was 0 % of control. For “CTGCTCAGCTAAGACCCTCA (sugars l3 d14 l3, PS)”, the calcium oscillation score was 4.03 % of control. With CTGGACGTTGCTAAGA (sugars l3 d10 l3, PS) the calcium oscillation score was 0 % of control. CTGGCCACCTCCTGGT (sugars l3 d10 l3, PS) was tested, and the calcium oscillation score was 16.1 % of control. “CTGGCCATCTTATGCTGACC (sugars l3 d14 l3, PS)” was tested, and the calcium oscillation score was 12.8 % of control. For CTGGTTTATGATGG (sugars l3 d8 l3, PS), the calcium oscillation score was 32.6 % of control. With CTGGTTTATGATGGAT (sugars l3 d10 l3, PS) the calcium oscillation score was 0 % of control. With “CTGGTTTATGATGGATGTTG (sugars l3 d14 l3, PS)” the calcium oscillation score was 0 % of control. For “CTGGTTTGTAGACTATTTGC (sugars l3 d14 l3, PS)”, the calcium oscillation score was 0 % of control.
